Measurements from patent publication US12140600B2, “Method for measuring activated partial thromboplastin time” (SYSMEX CORPORATION, priority 2019, dated 2024).

Test: Effect of suppressing precipitation of ellagic acid-metal ion complex (salting out, dynamic light scattering and visual check)
Assay type: physicochemical
Conditions: for degree of increase in particle size of complex with respect to the increase in salt concentration / precipitation, visually confirmed: additive 100 μM; for degree of increase in particle size of complex with respect to the increase in salt concentration: sodium chloride 10, 50 or 100 mM, FIG. 3; for precipitation, visually confirmed: sodium chloride concentration 100 mM; for precipitation suppressing effect versus additive concentration: additive at various concentrations, FIGS. 4A and 4B
Protocol: In an APTT reagent comprising a metal ion complex of ellagic acid as an activator, when the salt concentration increases, the complex particle size increases by the salting-out effect, and finally precipitation occurs. By utilizing the principle of salting out, the effect of suppressing the precipitation of various additives in ellagic acid-metal ion complex solutions was confirmed.
An ellagic acid-metal ion complex solution was prepared to contain 50 mM HEPES, 8 mM TAPS, and 1% by mass glycine as buffer components, 100 μM ellagic acid, 60 μM zinc chloride, and 50 μM aluminum chloride as a metal ion complex of ellagic acid, and 0.05% ProClin (trademark) 300 (Sigma-Aldrich Co., LLC.) as a preservative. A complex solution comprising each additive at a concentration of 100 μM was obtained by mixing this solution with any one selected from gallic acid, pyrogallol, hydroquinone, 5-methylpyrogallol, resorcinol, or cyclohexanetriol as an additive. As a control, an ellagic acid-metal ion complex solution not comprising an additive was used.
Each complex solution prepared in (1) above was mixed with a 5 M sodium chloride solution to obtain a mixed solution (test group) having a sodium chloride concentration of 10 mM, 50 mM, or 100 mM. The relationship between the salt concentration in each mixed solution and the average particle size of complex was confirmed by a dynamic scattered light method using Zetasizer Nano (Malvern Panalytical Ltd.). The results are illustrated in FIG. 3.
The effect of suppressing precipitation was confirmed in the same manner as in (2) above using the complex solutions containing gallic acid or pyrogallol at various concentrations. The results are illustrated in FIGS. 4A and 4B.

Row | degree of increase in particle size of complex with respect to the increase in salt concentration | Compound | precipitation, visually confirmed | precipitation suppressing effect versus additive concentration
1 | small | Oc1cccc(O)c1O [pyrogallol] | precipitation has not been visually confirmed | precipitation suppressing effect is observed at all concentrations
2 | small | O=C(O)c1cc(O)c(O)c(O)c1 [gallic acid] | precipitation has not been visually confirmed | precipitation suppressing effect is observed at all concentrations
